Measured values reported in US10675286B2, “Heterocyclic compounds and uses thereof” (Infinity Pharmaceuticals, Inc., priority 2014, dated 2020).
Like-named read-outs stand apart in the source and are kept apart here.

Legend:
[1] = test system: haematological malignancies; conditions: cited from earlier work
PI3K γ = PI3K γ (Homo sapiens (Human), UniProt P48736); experiment: PI3-Kinase Promega ADP-Glo Max assay, γ isoform; type: biochemical
Procedure: Promega ADP-Glo Max assay kit (Cat. No. V7002) was utilized to determine IC50 values for α, β, δ and γ isoforms of human Class I PI3 kinases (Millipore). […] Reactions were incubated at room temperature for 2 hours followed by addition of 25 uL of stop solution. After a 40-minute incubation at room temperature, 50 uL of Promega detection mix was added followed by incubation for 1 hour at room temperature. Plates were then read on Envision plate reader in luminescence mode. Data was converted to % inhibition using the following equation below:
[formula] where S is the sample luminescence, Pos is a positive control without added PI3K, Neg is the negative control without added compound. Data was then plotted as % inhibition vs compound concentration.

PI3K-δ = PI3K-δ (Homo sapiens (Human), UniProt O00329); experiment: RAJI p110 δ assay (phospho-AKT in anti-human IgM stimulated RAJI cells); type: cell-based
Procedure: Reduction of phospho-AKT is indicative of compounds that may inhibit B-cell proliferation and function in certain diseases.
Certain compounds provided herein were tested in RAJI cell model using procedures as described above.

PI3K-γ = PI3K-γ (Mus musculus (Mouse), UniProt Q9JHG7); experiment: Raw264.7 p110 γ assay (C5a-mediated phospho-AKT in RAW264.7 macrophages); type: cell-based
Source text: Briefly, serum-starved RAW264.7 cells are stimulated with a known GPCR agonist C5a. […] Cells can be treated with test compounds prior to, simultaneously with, or subsequent to the stimulation by C5a. RAW 264.7 cells respond to the complement component fragment C5a through activation of the C5a receptor, and the C5a receptor activates macrophages and induces cell migration.

[2] = Pharmacokinetics of Compound 88 in female C57 mice, PO; type: in vivo, mouse; conditions: for tlast / AUC: female C57 mice; for AUC: mouse, plasma, read-out: AUC0_INF
Procedure: Animals were weighed daily prior to dosing. […] On subsequent dosing days, the animals' condition was noted prior to dosing; the animals were observed within 4 hours of dosing, and at the end of the day.
Samples were collected at pre-dose 0.25, 0.5, 1, 2, 4, 6 and 24 h following the first dose on day 1 and pre-dose (trough), 0.25, 0.5, 1, 2, 4, 6 and 24 h following the final dose on day 3. Animals received a single oral dose daily for 3 consecutive days. Blood was collected by retro-orbital bleeding for all time points on day 1. All other blood sampling was collected by a cardiac puncture. Blood was collected into K2EDTA tubes and placed on wet ice. Within 15 min of collection, the sample was centrifuged at 10,000 rpm at 4° C. for 10 min in a bench top centrifuge and the plasma transferred to a new microcentrifuge tube.
A similar study was carried out using Compound 88. […] Below is a table that details the results for Compound 88: […]

human T cells = experiment: Concanavalin A-induced model for activation of human T cells (IFN-γ); type: cell-based
[3] = test system: IL-8 induced neutrophil migration; experiment: IL-8 driven murine air pouch model; type: in vivo; conditions: mouse; Compound BB 0.1, 0.3, 1, 3 mg/kg; Compound AA 10, 25, about 50 mg/kg; vs vehicle
Source text: IL-8 chemoattracts and activates neutrophils.

[4] = test system: CXCL12-induced T cell migration; experiment: CXCL12-induced T-cell migration in CLL PBMCs (transwell); type: cell-based; conditions: Homo sapiens
Procedure: Specifically, the material used were media (RPMI+0.5% Fetal Bovine Serum+Pen/Strep), total CLL PBMCs (AllCells), CoStar 24-transwell plates ([…]) #3421, BD Cytofix Fixation Buffer (#554655), BD FBS Stain Buffer (BD Biosciences, 554656), Deep 96-well plate (Axygen, P-2ML-SQ-C), rhCXCL12 (R&D, 350-NS-050), CD-19 APC Cy7 (BD #348794 1:20), CD3-PerCPCy5.5 (BD #560835, 1:20), CD5-PE (Biolegend #300608, 1:5), CD4-FITC (BD #561842, 1:20), and CD8-APC (BD #561953, 1:20).
Total CLL human PBMCs were preincubated with Compound AA or BB in media for 45 minutes at 37° C. […] After the 45 minutes of compound preincubation, 500-750K CLL PBMCs were placed in the upper chamber of the transwell insert in a total volume of 100 uL. The cells were allowed to migrate for 2-4 hours at 37° C. The inserts were removed, and 550 uL media from lower chamber were transferred into a deep 96-well plate. The cells were spun at 1280 rpm for 5 minutes and flick media. The cells were resuspended in 400 uL BD Cytofixation buffer and incubated at RT for 10 minutes. 1 mL BD FBS stain buffer was added. The cells were spun at 1280 rpm and fixation buffer was disposed. The cells were resuspended in 100 uL of CD3,4,8,5,19 antibody cocktail made up in BD FBS stain buffer, which was then incubated at room temperature in the dark for 30-60 minutes. 1 mL BD FBS stain buffer was added to each well, which was then spun and flicked. The cells were resuspended in 150 uL FBS stain buffer and transferred to FACS tubes already containing 150 uL FBS stain buffer. Each sample was read on the FACS for 25 seconds. Gate on CD3, 4, 8 and CD19/5 subpopulations individually and calculate average migration index from triplicate samples. See e.g., Borge et al., haematologica 2010, 95(5): 768-775; de Rooij et al., Blood 2012, 119: 2590-2594.

[5] = test system: LPS-induced neutrophil influx into BALF; experiment: LPS-induced neutrophilia in rats, oral administration; type: in vivo; conditions: rat, p.o., 4 hours post-LPS challenge; dose dependent
Procedure: (§1) This study also includes assessment of the exposure to the compounds in plasma and lung tissues.
(§2) Ref C is budesonide p.o. The compound was administered p.o. and about 1 hour later, LPS was administered intra-tracheally and plasma was collected. After about 5 hours, plasma and bronchoalveolar lavage samples were collected.

[6] = Oral PK in the rat LPS studies (free plasma concentration); type: in vivo; conditions: for Free Plasma Conc (nM): p.o. 0.2 mg/kg
Procedure: as §1, §2

[7] = test system: CXCL12 induced p-AKT in bone marrow derived macrophages; experiment: CXCL12-induced p-AKT induction assay in differentiated, polarized macrophages; type: cell-based, mouse
Source text: Long bones from young C57B6 mice were harvested and bone marrow was extruded by gentle lavage of the bone marrow cavities with a 28 gauge needle. Red blood cells were removed using red blood cell lysis buffer (Sigma). Bone marrow cells were differentiated to macrophages using MCSF for 6 days (RPMI and 20% FCS) with one media change (with removal of all non-adherent cells) at day 3. Macrophages were polarized into M0 (MCSF), M1 (MCSF, IFNγ, and LPS for 1 day), or M2 (MCSF, IL4 for 2 days).
Polarized macrophages were lifted with Acutase, and plated at 0.5M cells per well (0.5 ml) in a deep well (2 ml) non adherant plate in polarization media for 1 hour. […] CXCL12 was added, and the cells were mixed on a plate shaker for 2 minutes. 1 ml of 37 degree FACS Lyse/fix buffer (BD bioscience) was added and the plate was mixed for 1 minute. The plates were spun and decanted and frozen at −80° C. Phospho AKT staining with anti Phospho AKT 473 PERCP labeled (Cell Signaling Technologies) was performed and measured by flow cytometry. Total cell MFI was used to calculate the effect of tested compound on CXCL12 induction of phospho AKT.

[8] = test system: T cell activation (IFN-γ in response to ConA); experiment: T cell activation in human whole blood (Con-A, IFN-γ readout); type: cell-based; conditions: 24 hours, read-out: IC50, T cell activation as measured by inhibition of IFN-γ
Procedure: The purpose of this study is to evaluate the effect of various antigens (Con-A) in T cell activation in Human Whole Blood vs. 1:1 Diluted Blood using test compounds at 24 hour time-point.
T-cell Activation Media includes RPMI-1000 ml, MEM NEAA-10 ml, Sodium Pyruvate (100 mM)-10 ml, Pen Strep-10 ml, 2-Mercaptoethanol-1 ml, and FBS-100 ml. 100 ul of whole blood were plated in 96 well plate. Used only the 60 inside wells and filled the outside with media or PBS. Diluted human whole blood with 5% Serum RPMI 1640 1:1 and plate 100 ul in 96 well plate. Used only the 60 inside wells and filled the outside with media or PBS.
The compound was diluted using DMSO (Sigma hybridmax). For 1000 nM highest concentration starting from a 10 mM stock, added 300 ul of DMSO into deep well plates. To the highest concentration add 10 ul of 10 mM compound stock.
A media plate was prepared from DMSO plate by taking 100 ul and go into 900 ul media in new deep well plate, taping plate, and putting on mixer for 5 minutes.
The rested cell plates were removed from incubator. Added 12 uL of diluted compound from media plate (final DMSO is 1%), and incubated for 45 minutes.
Con-A was prepared as follows: 200 ul stock into 1 ml Media, 100 ul of that into 1 ml Media, 100 ul of that into 1 ml Media. […] This was analyzed after 24 Hours.
10× stock in media, added 12 ul per well. […] Analyzed with multiplex elisa from MSD. […]

LLC tumor brei = LLC tumor brei model, Compound BB with or without cyclophosphamide; type: in vivo, mouse; conditions: Compound BB 15 mg/kg QD PO, cyclophosphamide 50 mg/kg EOD IP
Procedure: In this experiment, treatment began when tumors reached approx. 150 mm^3—around day 12. Caliper and xenogen images were monitored. Treatment groups n=13-15/group. […] Samples for FACs analysis were collected on day 23 post implant. Using FACS, cells were assayed for the level of CD11b and Gr-1.

PI3K-γ, sequence (Q9JHG7 whole entry): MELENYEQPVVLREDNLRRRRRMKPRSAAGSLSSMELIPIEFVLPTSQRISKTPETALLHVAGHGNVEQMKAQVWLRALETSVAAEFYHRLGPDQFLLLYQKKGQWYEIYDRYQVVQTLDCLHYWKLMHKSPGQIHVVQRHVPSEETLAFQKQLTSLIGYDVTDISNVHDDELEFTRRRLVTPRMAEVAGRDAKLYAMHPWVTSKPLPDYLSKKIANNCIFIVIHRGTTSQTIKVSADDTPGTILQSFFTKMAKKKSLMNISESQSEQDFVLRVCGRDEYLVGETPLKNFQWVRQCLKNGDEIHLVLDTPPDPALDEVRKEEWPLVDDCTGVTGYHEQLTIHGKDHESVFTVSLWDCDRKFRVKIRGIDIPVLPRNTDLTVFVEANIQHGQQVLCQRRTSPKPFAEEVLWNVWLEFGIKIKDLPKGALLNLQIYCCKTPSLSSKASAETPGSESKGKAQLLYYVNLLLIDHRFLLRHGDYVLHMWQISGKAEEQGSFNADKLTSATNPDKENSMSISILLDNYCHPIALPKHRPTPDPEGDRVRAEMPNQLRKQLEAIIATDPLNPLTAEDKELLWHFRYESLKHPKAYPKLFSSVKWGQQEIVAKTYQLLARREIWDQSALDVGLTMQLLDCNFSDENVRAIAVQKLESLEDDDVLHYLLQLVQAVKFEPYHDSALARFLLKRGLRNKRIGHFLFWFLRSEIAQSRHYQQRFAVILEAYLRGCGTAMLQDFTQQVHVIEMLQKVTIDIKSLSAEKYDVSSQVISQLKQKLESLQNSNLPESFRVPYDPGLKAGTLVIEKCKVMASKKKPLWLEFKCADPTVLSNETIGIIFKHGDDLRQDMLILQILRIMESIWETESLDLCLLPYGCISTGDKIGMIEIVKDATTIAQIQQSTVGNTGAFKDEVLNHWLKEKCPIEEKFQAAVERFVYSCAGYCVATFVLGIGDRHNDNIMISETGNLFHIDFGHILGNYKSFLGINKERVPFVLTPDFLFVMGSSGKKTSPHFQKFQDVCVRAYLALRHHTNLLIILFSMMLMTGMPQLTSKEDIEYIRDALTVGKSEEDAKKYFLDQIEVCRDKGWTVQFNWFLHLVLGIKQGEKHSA
PI3K-δ, sequence (O00329 whole entry): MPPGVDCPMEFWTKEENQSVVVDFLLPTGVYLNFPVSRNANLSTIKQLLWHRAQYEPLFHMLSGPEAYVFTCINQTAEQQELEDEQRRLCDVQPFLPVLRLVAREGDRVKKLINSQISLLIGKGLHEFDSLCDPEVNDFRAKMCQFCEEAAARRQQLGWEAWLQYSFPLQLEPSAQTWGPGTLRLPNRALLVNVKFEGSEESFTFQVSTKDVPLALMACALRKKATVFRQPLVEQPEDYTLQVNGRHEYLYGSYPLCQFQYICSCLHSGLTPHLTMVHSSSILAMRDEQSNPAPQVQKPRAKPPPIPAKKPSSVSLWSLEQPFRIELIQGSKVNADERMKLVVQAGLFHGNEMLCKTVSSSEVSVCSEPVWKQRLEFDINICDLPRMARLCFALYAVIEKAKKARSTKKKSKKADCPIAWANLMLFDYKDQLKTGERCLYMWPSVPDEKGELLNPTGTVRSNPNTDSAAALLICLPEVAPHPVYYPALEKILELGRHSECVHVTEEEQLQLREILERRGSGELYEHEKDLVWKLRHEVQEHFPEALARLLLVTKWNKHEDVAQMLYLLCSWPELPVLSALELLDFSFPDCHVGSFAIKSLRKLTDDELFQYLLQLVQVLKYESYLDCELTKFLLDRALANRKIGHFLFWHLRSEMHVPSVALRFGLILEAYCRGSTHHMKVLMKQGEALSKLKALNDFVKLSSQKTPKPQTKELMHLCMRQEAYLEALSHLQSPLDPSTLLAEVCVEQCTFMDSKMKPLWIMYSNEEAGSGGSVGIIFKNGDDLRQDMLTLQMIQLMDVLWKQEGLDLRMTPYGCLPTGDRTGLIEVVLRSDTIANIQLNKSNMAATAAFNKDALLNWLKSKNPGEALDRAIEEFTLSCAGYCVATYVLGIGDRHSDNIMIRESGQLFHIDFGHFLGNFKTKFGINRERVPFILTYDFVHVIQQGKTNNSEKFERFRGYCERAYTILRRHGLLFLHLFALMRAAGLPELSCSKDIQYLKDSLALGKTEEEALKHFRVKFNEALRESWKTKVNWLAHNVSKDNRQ
PI3K-δ, sequence (P27986 whole entry partner): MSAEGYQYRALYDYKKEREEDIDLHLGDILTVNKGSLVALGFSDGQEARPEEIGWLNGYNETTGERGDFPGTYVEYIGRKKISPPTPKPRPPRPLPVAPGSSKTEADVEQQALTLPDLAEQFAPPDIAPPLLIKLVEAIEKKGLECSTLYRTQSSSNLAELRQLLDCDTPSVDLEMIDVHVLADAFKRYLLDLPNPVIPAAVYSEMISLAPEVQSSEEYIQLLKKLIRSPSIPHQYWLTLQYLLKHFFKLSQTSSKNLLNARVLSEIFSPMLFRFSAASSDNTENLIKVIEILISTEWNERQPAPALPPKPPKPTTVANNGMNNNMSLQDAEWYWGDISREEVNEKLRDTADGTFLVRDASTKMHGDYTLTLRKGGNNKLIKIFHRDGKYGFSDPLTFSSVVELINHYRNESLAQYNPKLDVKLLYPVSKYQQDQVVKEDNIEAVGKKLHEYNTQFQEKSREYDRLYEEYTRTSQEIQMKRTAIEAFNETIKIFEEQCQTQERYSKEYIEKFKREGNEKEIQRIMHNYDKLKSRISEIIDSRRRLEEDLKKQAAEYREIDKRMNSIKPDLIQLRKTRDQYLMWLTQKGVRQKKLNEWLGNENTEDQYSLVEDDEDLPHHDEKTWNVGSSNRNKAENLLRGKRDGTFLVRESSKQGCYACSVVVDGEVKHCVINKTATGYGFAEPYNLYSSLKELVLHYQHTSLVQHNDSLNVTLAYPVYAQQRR
PI3K γ, sequence (P48736 whole entry, canonical isoform): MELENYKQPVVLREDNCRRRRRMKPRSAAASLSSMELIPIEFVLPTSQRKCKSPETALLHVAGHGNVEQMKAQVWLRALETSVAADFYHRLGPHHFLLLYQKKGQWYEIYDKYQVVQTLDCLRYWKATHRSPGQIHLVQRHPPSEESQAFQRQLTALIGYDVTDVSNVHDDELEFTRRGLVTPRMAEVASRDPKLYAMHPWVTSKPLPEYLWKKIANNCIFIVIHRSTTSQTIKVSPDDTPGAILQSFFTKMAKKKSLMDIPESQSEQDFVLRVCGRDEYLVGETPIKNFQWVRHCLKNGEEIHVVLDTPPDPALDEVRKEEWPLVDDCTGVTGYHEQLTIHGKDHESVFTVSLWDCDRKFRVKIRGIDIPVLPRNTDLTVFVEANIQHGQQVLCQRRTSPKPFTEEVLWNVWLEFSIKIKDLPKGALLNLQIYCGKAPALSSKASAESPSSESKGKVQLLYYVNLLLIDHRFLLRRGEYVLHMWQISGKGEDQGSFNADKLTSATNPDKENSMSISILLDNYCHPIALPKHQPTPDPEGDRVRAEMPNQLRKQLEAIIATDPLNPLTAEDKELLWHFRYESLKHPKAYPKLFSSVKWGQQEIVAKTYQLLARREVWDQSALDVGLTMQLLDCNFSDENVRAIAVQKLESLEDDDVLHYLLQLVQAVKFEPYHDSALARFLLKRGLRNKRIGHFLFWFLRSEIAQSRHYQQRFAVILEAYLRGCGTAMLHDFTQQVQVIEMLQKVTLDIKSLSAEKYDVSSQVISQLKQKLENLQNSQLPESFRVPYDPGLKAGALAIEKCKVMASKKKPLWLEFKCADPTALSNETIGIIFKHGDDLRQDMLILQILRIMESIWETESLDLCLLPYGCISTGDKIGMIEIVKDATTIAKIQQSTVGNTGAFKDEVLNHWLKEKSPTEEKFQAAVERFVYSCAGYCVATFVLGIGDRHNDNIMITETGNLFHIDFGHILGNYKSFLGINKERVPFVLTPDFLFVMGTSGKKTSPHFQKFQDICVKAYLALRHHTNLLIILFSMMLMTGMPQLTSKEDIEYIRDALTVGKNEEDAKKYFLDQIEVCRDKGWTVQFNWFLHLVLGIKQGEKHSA

## CC[C@H](Nc1ncnc2[nH]cnc12)c1nc2cccc(F)c2c(=O)n1-c1ccccc1 [CAL-101]
[1]; phase 1 trial, patients with poor prognostic characteristics
  clinical activity in CLL: showed activity
[1]; single agent
  clinical activity in mantle cell lymphoma and refractory non Hodgkin's lymphoma: active

## C[C@H](NC(=O)c1c(N)nn2cccnc12)c1cc2cccc(C#Cc3ccn[nH]3)c2c(=O)n1-c1ccccc1 [Compound 43]
PI3K γ
  PI3K δ/PI3K γ IC50 (selectivity): Y (Y = 50 to <850)
PI3K-δ
  IC50: 100 to 500 nM
PI3K-γ
  RAJI δ/Raw264.7 γ IC50 (selectivity): X (X = 10 to <50)
PI3K-γ; phospho-AKT
  IC50: 1 to 50 nM

## Cc1c(C#Cc2cccc3nc([C@H](C)NC(=O)c4c(N)nn5cccnc45)n(-c4ccccc4)c(=O)c23)cnn1C [Compound 88, (S)-2-amino-N-(1-(5-((1,5-dimethyl-1H-pyrazol-4-yl)ethynyl)-4-oxo-3-phenyl-3,4-dihydroquinazolin-2-yl)ethyl)pyrazolo[1,5-a]pyrimidine-3-carboxamide]
[2]; 2 mg/kg PO NMP
  tlast: 8 h
[2]; 7.5 mg/kg PO NMP
  tlast: 24 h
  AUC: 20700 ng·h/mL
[2]; 15 mg/kg PO NMP
  tlast: 24 h
  AUC: 81200 ng·h/mL
[2]; female C57 mice, 2, 7.5 or 15 mg/kg PO
  Stability in serum: good stability in serum

## CC(C)n1c([C@H](C)Nc2ncnc(N)c2C#N)cc2cccc(-c3ccc(=O)n(C)c3)c2c1=O [Compound AA, reference compound]
Human T cells
  inhibition of IFN-γ: highly selective inhibitor
[3]
  IL-8 induced neutrophil migration into air pouch: does not inhibit IL-8 induced neutrophil migration
[4]; T-cell subset CD3+, read-out: EC50 (nM), CXCL12 induced T-cell migration
  EC50: 630 ± 71 nM
[4]; T-cell subset CD4+, read-out: EC50 (nM), CXCL12 induced T-cell migration
  EC50: 726 ± 230 nM
[4]; T-cell subset CD8+, read-out: EC50 (nM), CXCL12 induced T-cell migration
  EC50: 423 ± 290 nM
[4]; read-out: EC50, inhibition of CXCL12-induced CD3+ T cell migration (FIG. 8)
  EC50: 694 nM
[5]
  Neutrophil in bronchoalveolar lavage fluid (BALF): reduced neutrophil in bronchoalveolar lavage fluid (BALF)
[6]; highest dose levels, gamma for Compound BB, delta for Compound AA
  Free plasma levels relative to IC90 of the target isoform: equal or greater than the IC90
[6]; 1.5 h (time of LPS challenge)
  Free Plasma Conc (nM): BLQ
[6]; […] (about 4 hours post LPS challenge)
  Free Plasma Conc (nM): BLQ
[7]; differentiated and M1 polarized macrophage
  IC50, CXCL12 induced p-AKT: did not significantly inhibit
[7]; differentiated and M2 polarized macrophage
  IC50, CXCL12 induced p-AKT: did not significantly inhibit
[8]
  IC50: 3 nM

## O=P1(N(CCCl)CCCl)NCCCO1 (centres unmarked) [cyclophosphamide, reference compound]
LLC tumor brei
  Tumor growth (FIG. 48): reduced tumor growth by about the same amount
